Assays:
[1] = target: T1, E. coli membranes with FOF1 lacking the ε subunit's CTD (ε88-stop) (Escherichia coli, UniProt P68699); assay: ATP hydrolysis by ε88-stop E. coli membranes, enzyme-coupled spectrophotometric assay; type: biochemical; conditions: for Ki: VentA at half-max. inhibition (Ki), early inhibition; for ATPase at saturating ventA (y0) / VentA-sensitive ATPase (y1): best fit of early rates
T1 construct: To express haploid levels of EcFOF1 containing WT-ε or ε88-stop; expressed in transfected cells; host or cells: E. coli strain XH1 (chromosomal atpC deletion) carrying the ε88-stop version of pMBε1; inverted membrane vesicles
From the text: We next investigated whether the ε-inhibited state of EcFOF1 also impacts interactions of ventA with the enzyme. The N-terminal domain (NTD) of ε is required for FOF1 assembly and functional coupling of F1 to FO in eukaryotic and bacterial species; the C-terminal domain (CTD) of ε can auto-inhibit FOF1 and isolated F1 from some bacteria and from chloroplasts, but the mitochondrial homolog (δ) is not inhibitory[39],[40]. Thus we measured the effects of ventA on ATPase activity of E. coli membranes expressing ε88-stop, which lacks the autoinhibitory εCTD (Fig. 3). From Table 1 (100% ATPase values), it is clear that selenite activates membrane ATPase more (fourfold) for ε88-stop than for WT (2.8-fold). This is because, without the inhibitory εCTD, more enzyme complexes shift to the MgADP-inhibited state, which can be activated by selenite. […] In contrast, early inhibition of ATPase by ventA has similar Ki values for WT and ε88-stop membranes in the absence (0.7 vs 0.5 μM) or in the presence of selenite (0.23 vs 0.09 μM).
Plasmid pXH302S, which encodes the WT atpC gene and expresses near haploid levels of the ε subunit, was subjected to fusion PCR mutagenesis to construct plasmid pMBε1, with an N-terminal affinity tag ([…]) added prior to the initial Met residue. To express the ε88-stop subunit, an AfeI-ScaI restriction fragment of WT pMBε1 was replaced by the analogous fragment from pH6ε88-stop[46]. To express haploid levels of EcFOF1 containing WT-ε or ε88-stop, the appropriate version of pMBε1 was transformed into E. coli strain XH1, which has a chromosomal deletion of the atpC gene for ε[54]. For these transformed strains, cultures were grown and inverted membrane vesicles (IMV) were prepared according to [55]. WT ε, with the same N-terminal His6-tag, was over-expressed from pH6ε and purified as described.
(§1) ATP hydrolysis by membrane vesicles was assayed spectrophotometrically[57] at 30 °C using an open-chamber, diode array spectrophotometer (Hewlett Packard 8453 UV–Vis) as described in[29]. The assay medium (1 ml per assay) contained 20 mM Mops/Tris, pH 8.0, 0.2 mM EDTA, 10 mM CH3COOK, 1 mM ATP, 3.2 mM Mg(CH3COO)2, 1 mM phosphoenolpyruvate, at least 0.3 mM NADH, 0.1 mg/ml pyruvate kinase, 0.1 mg/ml lactate dehydrogenase, 5 mM KCN, and 5 μM carbonyl cyanide 4-(trifluoromethoxy)-phenylhydrazone. As noted before, the rate of ATP hydrolysis by membranes increases to a small degree during assays. This is due, at least in part, to dissociation of a small fraction of EcF1 and/or ε from the membranes, since the increase is inhibited by added ε (e.g., Fig. 5). To avoid interference of this increase with the changes of ATPase activity induced by venturicidins, unless indicated otherwise, measurement of ATPase activities were started 60 min after addition of membranes to the complete assay medium. This minimizes further increases in ATPase rate during control assays to < 15%. To keep absorbance between 1.5 and 2 units after the 60-min preincubation, up to 0.2 mM additional NADH was added to the assay medium. In figures displaying activity traces, some traces are shifted vertically for visual clarity.

[2] = target: T2, PaFOF1 in membranes from P. aeruginosa strain PAO1 (Pseudomonas aeruginosa, UniProt Q9HT15); assay: ATP hydrolysis by P. aeruginosa PAO1 membranes, enzyme-coupled spectrophotometric assay; type: biochemical; conditions: 38.5 mM selenite
T2 construct: endogenous in cells; host or cells: P. aeruginosa strain PAO1, inverted membrane vesicles
Experimental: P. aeruginosa strain PAO1 was grown in LB medium at 37 °C as described. For preparation of IMV, final cultures used 1 L of LB per 2L baffled flask and were inoculated from an overnight culture at an initial OD600 ~ 0.025. Cultures were shaken at 250 rpm and monitored until they reached mid- to late-logarithmic growth phase (OD600, 1–1.4). Cultures were chilled and subsequent steps for cell lysis and isolation of IMV were done at 4 °C. Cells were sedimented by centrifugation (3,700 × g, 30 min). Cells from 1 to 2 L of culture (~ 2–3 g wet cells/L) were resuspended in 25–40 ml of STEM buffer (TEM buffer plus sucrose[55]), transferred to a 50 ml Oak Ridge tube, sedimented again (11,617 × g, 10 min), resuspended in 20–40 ml of STEM and frozen at -80 °C. Thawed cells were lysed by two sequential passages through an SLM-Aminco French pressure cell at ~ 16,000 psi, essentially as described for E. coli[55]; the pressure cell was enclosed in a clear biohazard bag (MiniGrip, IP2024B3T) during use to contain any aerosols formed. Unlysed cells and cell wall debris were removed by centrifugation (50 ml Oak Ridge tubes, 16,743 × g, 25 min): the supernate was diluted with MTGM7.5 buffer (50 mM MOPS-TRIS, 10%(v/v) glycerol, 5 mM Mg(CH3COO)2, pH 7.5) and centrifugation was repeated at least twice, recovering the supernate each time. The final supernatant lysate was stored at -80 °C. To isolate IMV, the cleared lysate was thawed quickly and diluted with MTGM7.5 as needed to fill 1 or 2 polycarbonate tubes for use in a Beckman Ti70 rotor. The IMV (membranes) were sedimented by ultracentrifugation (250,000 × g max) for 1 h, the membranes were resuspended in MTGM7.5 buffer to fill one Ti70 tube and ultracentrifugation was repeated for 45 min. The membranes were resuspended in a small volume of MTGM7.5 buffer (typically ≥ 10 mg membrane protein/ml) and homogenized manually (Potter–Elvehjem type). Small aliquots of the final membrane sample were quick-frozen in liquid nitrogen and stored at − 80 °C.
as §1

[3] = ε88stop + 38.5 mM selenite (Fig. 3B)

CCC(=O)C(C)C(O)C(C)CC(C)C1OC(=O)CC2(O)CC=C(C)C(O2)C(C)=CCCCC(OC2CC(OC(N)=O)C(O)C(C)O2)C=CC(C)CC1C (stereo not drawn) [ventA, venturicidin A]
Ki ([1]; ε88stop (Fig. 3A)): 500 nM
Ki [1, 3]: 90 nM
Ki for early inhibition lower in presence of selenite than in its absence ([1]; ε88-stop membranes): fivefold
ATPase at saturating ventA (y0) ([1]; ε88stop (Fig. 3A)): 37% (± 3)
VentA-sensitive ATPase (y1) ([1]; ε88stop (Fig. 3A)): 67% (± 4)
ATPase at saturating ventA (y0) [1, 3]: 37% (± 2)
VentA-sensitive ATPase (y1) [1, 3]: 66% (± 4)
Inhibition of early ATPase rate [2]: up to 42%
ATPase remaining at saturating ventA ([2]; best fit of early rates): 62% (± 2)
ventA-sensitive ATPase ([2]; best fit of early rates): 42% (± 3)
Late rate, recovery of activity as % of uninhibited rate ([2]; concentration-dependent): up to 140%
Ki ([2]; read-out: Ki (inhibition of early rate)): 1200 nM

Source: PMC8249445, “Complex effects of macrolide venturicidins on bacterial F-ATPases likely contribute to their action as antibiotic adjuvants” (Scientific Reports, 2021)
